Measured values published in ChEMBL document CHEMBL3046479, “Preparation and antimicrobial activity evaluation of some new bi- and triheterocyclic azoles” (2013).
In brackets after ≈: the same amount, converted by molar mass. Activity calls are given as the source filed them. The calls are words filed in the database; no cut-off is given here.

Columns and labels:
Type in all cases: functional
Enterococcus faecalis = assay: Antimicrobial activity against Enterococcus faecalis ATCC 29212 assessed as growth inhibition after 18-24 hr by broth double microdilution method
[1] = system: Mycolicibacterium smegmatis; assay: Antimicrobial activity against Mycobacterium smegmatis ATCC 607 assessed as growth inhibition after 48-72 hr by broth double microdilution method
Candida albicans = assay: Antimicrobial activity against Candida albicans ATCC 60193 assessed as growth inhibition after 18-24 hr by broth double microdilution method
Saccharomyces cerevisiae = assay: Antimicrobial activity against Saccharomyces cerevisiae RSKK 251 assessed as growth inhibition after 18-24 hr by broth double microdilution method
Escherichia coli = assay: Antimicrobial activity against Escherichia coli ATCC 35218 assessed as growth inhibition after 18-24 hr by broth double microdilution method
[2] = system: Yersinia pseudotuberculosis; assay: Antimicrobial activity against Yersinia pseudotuberculosis ATCC 911 assessed as growth inhibition after 18-24 hr by broth double microdilution method
Pseudomonas aeruginosa = assay: Antimicrobial activity against Pseudomonas aeruginosa ATCC 10145 assessed as growth inhibition after 18-24 hr by broth double microdilution method
Listeria monocytogenes = assay: Antimicrobial activity against Listeria monocytogenes ATCC 43251 assessed as growth inhibition after 18-24 hr by broth double microdilution method
Bacillus cereus = assay: Antimicrobial activity against Bacillus cereus 709 Roma assessed as growth inhibition after 18-24 hr by broth double microdilution method
Staphylococcus aureus = assay: Antimicrobial activity against Staphylococcus aureus ATCC 25923 assessed as growth inhibition after 18-24 hr by broth double microdilution method

| SMILES | MIC (Enterococcus faecalis) | MIC [1] | MIC (Candida albicans) | MIC (Saccharomyces cerevisiae) | MIC (Escherichia coli) | MIC [2] | MIC (Pseudomonas aeruginosa) | MIC (Listeria monocytogenes) | MIC (Bacillus cereus) | MIC (Staphylococcus aureus) |
| --- | --- | --- | --- | --- | --- | --- | --- | --- | --- | --- |
| Cc1nn(-c2ccc(/N=C3\SCC(=O)N3Cc3ccccc3)cc2F)c(=O)n1CCCn1ccnc1 | inactive | 125 mg/L (≈ 247 µM) | 500 mg/L (≈ 989 µM) | 500 mg/L (≈ 989 µM) | inactive | inactive | inactive | inactive | inactive | inactive |
| COc1ccc(/C=N/NC(=O)Cn2nc(C)n(/N=C/c3ccncc3)c2=O)cc1 | inactive | inactive | 250 mg/L (≈ 635 µM) | inactive | inactive | inactive | inactive | inactive | inactive | inactive |
| COc1ccc(/C=N/NC(=O)Cn2nc(C)n(/N=C/c3ccncc3)c2=O)cc1O | inactive | inactive | 125 mg/L (≈ 305 µM) | inactive | inactive | inactive | inactive | inactive | inactive | inactive |
| Cc1nn(-c2ccc(/N=C/c3ccc(Br)cc3)cc2F)c(=O)n1CCCn1ccnc1 | inactive | 0.24 mg/L (≈ 0.497 µM) | inactive | inactive | inactive | inactive | inactive | inactive | inactive | inactive |
| Cc1nn(CN2CCN(c3ccccc3)CC2)c(=O)n1CCCn1ccnc1 | inactive | inactive | inactive | 125 mg/L (≈ 328 µM) | inactive | 0.7 mg/L (≈ 1.83 µM) | 31.3 mg/L (≈ 82 µM) | inactive | 1.2 mg/L (≈ 3.15 µM) | 62.5 mg/L (≈ 164 µM) |
| Cc1n[nH]c(=O)n1/N=C/c1ccncc1 | inactive | 125 mg/L (≈ 615 µM) | 125 mg/L (≈ 615 µM) | 500 mg/L (≈ 2460 µM) | inactive | inactive | inactive | inactive | inactive | inactive |
| Cc1nn(CC(=O)N/N=c2\sc(-c3ccc(Cl)cc3)cn2-c2ccccc2)c(=O)n1/N=C/c1ccncc1 | inactive | inactive | 125 mg/L (≈ 229 µM) | 250 mg/L (≈ 459 µM) | inactive | inactive | inactive | inactive | 125 mg/L (≈ 229 µM) | 125 mg/L (≈ 229 µM) |
| Cc1nn(CC(=O)NNC(=S)Nc2ccccc2)c(=O)n1CCCn1ccnc1 | inactive | 31.3 mg/L (≈ 75.5 µM) | 250 mg/L (≈ 603 µM) | 62.5 mg/L (≈ 151 µM) | inactive | inactive | inactive | inactive | inactive | inactive |
| Cc1nn(-c2ccc(N)cc2F)c(=O)n1CCCn1ccnc1 | inactive | 31.3 mg/L (≈ 98.9 µM) | 250 mg/L (≈ 790 µM) | 62.5 mg/L (≈ 198 µM) | inactive | inactive | inactive | inactive | inactive | inactive |
| Cc1nn(CNCc2ccco2)c(=O)n1CCCn1ccnc1 | inactive | 125 mg/L (≈ 395 µM) | 500 mg/L (≈ 1580 µM) | inactive | inactive | inactive | inactive | inactive | 125 mg/L (≈ 395 µM) | inactive |
| Cc1nn(CN2CCOCC2)c(=O)n1CCCn1ccnc1 | 0.97 mg/L (≈ 3.17 µM) | 15.6 mg/L (≈ 50.9 µM) | 31.2 mg/L (≈ 102 µM) | 7.81 mg/L (≈ 25.5 µM) | 0.97 mg/L (≈ 3.17 µM) | 0.48 mg/L (≈ 1.57 µM) | 0.48 mg/L (≈ 1.57 µM) | 0.24 mg/L (≈ 0.783 µM) | 0.24 mg/L (≈ 0.783 µM) | 0.48 mg/L (≈ 1.57 µM) |
| Cc1nn(Cc2nnc(S)n2-c2ccccc2)c(=O)n1/N=C/c1ccncc1 | inactive | inactive | 250 mg/L (≈ 637 µM) | inactive | inactive | inactive | inactive | inactive | inactive | inactive |
| CCOC(=O)Cn1nc(C)n(/N=C/c2ccncc2)c1=O | inactive | inactive | 250 mg/L (≈ 864 µM) | inactive | inactive | inactive | inactive | inactive | inactive | inactive |
| Cc1nn(CC(=O)N/N=C/c2ccccc2O)c(=O)n1/N=C/c1ccncc1 | inactive | inactive | 250 mg/L (≈ 659 µM) | inactive | inactive | inactive | inactive | inactive | inactive | inactive |
| Cc1nn(CNC2C(=O)N3C2SC(C)(C)C3C(=O)O)c(=O)n1CCCn1ccnc1 (stereo not given) | inactive | 31.3 mg/L (≈ 71.9 µM) | inactive | inactive | inactive | 125 mg/L (≈ 287 µM) | 125 mg/L (≈ 287 µM) | inactive | 125 mg/L (≈ 287 µM) | 62.5 mg/L (≈ 144 µM) |
| Cc1nn(CC(=O)NN)c(=O)n1/N=C/c1ccncc1 | inactive | 250 mg/L (≈ 908 µM) | 500 mg/L (≈ 1820 µM) | inactive | inactive | inactive | inactive | inactive | inactive | inactive |
| Cc1nn(CC(=O)NNC(=S)Nc2ccccc2)c(=O)n1/N=C/c1ccncc1 | inactive | inactive | inactive | inactive | inactive | inactive | inactive | inactive | inactive | inactive |
| Cc1nn(Cc2nnc(S)n2-c2ccccc2)c(=O)n1CCCn1ccnc1 | inactive | 125 mg/L (≈ 315 µM) | 500 mg/L (≈ 1260 µM) | 500 mg/L (≈ 1260 µM) | inactive | inactive | inactive | inactive | inactive | inactive |
| Cc1nn(CC(=O)N/N=C2\SCC(=O)N2c2ccccc2)c(=O)n1CCCn1ccnc1 | inactive | 62.5 mg/L (≈ 138 µM) | inactive | inactive | inactive | inactive | inactive | inactive | inactive | inactive |
